Data on three molecules can be found in ChEMBL document CHEMBL2034872, “Antineoplastic agents. 587. Isolation and structure of 3-epipancratistatin from Narcissus cv. Ice Follies” (2012).

Common to all, as to format: functional
The subject of test [1] is BXPC-3. As to the kind of experiment: Cytotoxicity against human BxPC3 cells after 48 hrs by SRB assay. The note with it: BXPC-3, 48 h.
Test [2] has as its system MCF7. The test can be described thus: Cytotoxicity against human MCF7 cells after 48 hrs by SRB assay. The settings on record: MCF7, 48 h.
In test [3] the test system is P388. The test can be described thus: Cytotoxicity against mouse P388 cells after 48 hrs by cell counting. The settings on record: P388, 48 h, read-out: ED50 (the source's name).
Test [4] concerns DU-145. The test can be described thus: Cytotoxicity against human DU145 cells after 48 hrs by SRB assay. The settings on record: DU-145, 48 h.
In test [5] the test system is SF-268. As to the kind of experiment: Cytotoxicity against human SF268 cells after 48 hrs by SRB assay. The note with it: SF-268, 48 h.
The test system of test [6] is KM-20L2. As to the kind of experiment: Cytotoxicity against human KM20L2 cells after 48 hrs by SRB assay. The note with it: KM-20L2, 48 h.
Test [7] deals with NCI-H460. The test can be described thus: Cytotoxicity against human NCI-H460 cells after 48 hrs by SRB assay. The settings on record: NCI-H460, 48 h.

In brackets after ≈: the same amount, converted by molar mass.

In the case of `O=C1N[C@H]2[C@H](O)[C@@H](O)[C@@H](O)[C@H](O)[C@@H]2c2cc3c(c(O)c21)OCO3` (relative stereo), the GI50 was 1.7 µg/mL (≈ 5.23 µM) in test [1]; 2.2 µg/mL (≈ 6.76 µM) in test [2]; 1.3 µg/mL (≈ 4 µM) in test [4]; 0.74 µg/mL (≈ 2.28 µM) in test [5]; 2.3 µg/mL (≈ 7.07 µM) in test [6]; 0.85 µg/mL (≈ 2.61 µM) in test [7]. In test [3], the EC50 was 0.69 µg/mL (≈ 2.12 µM).
Turning to `O=C1N[C@H]2[C@H](O)[C@H](O)[C@@H](O)[C@H](O)[C@@H]2c2cc3c(c(O)c21)OCO3` [PANCRATISTATIN], the GI50 in test [1] came to 0.02 µg/mL (≈ 0.0615 µM); in test [2], 0.023 µg/mL (≈ 0.0707 µM); in test [4] it was 0.015 µg/mL (≈ 0.0461 µM); in test [5], 0.014 µg/mL (≈ 0.043 µM); in test [6], 0.025 µg/mL (≈ 0.0769 µM); in test [7] it was 0.032 µg/mL (≈ 0.0984 µM). For the same molecule, the EC50 in test [3] is 0.017 µg/mL (≈ 0.0523 µM).
Consider `O=C1N[C@@H]2C(=C[C@H](O)[C@@H](O)[C@H]2O)c2cc3c(c(O)c21)OCO3` [NARCICLASINE], for which the EC50 in test [3] amounted to 0.018 µg/mL (≈ 0.0586 µM).
